Columns and labels:
[1] = molecular target: T1, Mineralocorticoid receptor (Homo sapiens, UniProt P08235); experiment: Antagonist activity at mineralocorticoid receptor (unknown origin)
T1 sequence (P08235 whole entry): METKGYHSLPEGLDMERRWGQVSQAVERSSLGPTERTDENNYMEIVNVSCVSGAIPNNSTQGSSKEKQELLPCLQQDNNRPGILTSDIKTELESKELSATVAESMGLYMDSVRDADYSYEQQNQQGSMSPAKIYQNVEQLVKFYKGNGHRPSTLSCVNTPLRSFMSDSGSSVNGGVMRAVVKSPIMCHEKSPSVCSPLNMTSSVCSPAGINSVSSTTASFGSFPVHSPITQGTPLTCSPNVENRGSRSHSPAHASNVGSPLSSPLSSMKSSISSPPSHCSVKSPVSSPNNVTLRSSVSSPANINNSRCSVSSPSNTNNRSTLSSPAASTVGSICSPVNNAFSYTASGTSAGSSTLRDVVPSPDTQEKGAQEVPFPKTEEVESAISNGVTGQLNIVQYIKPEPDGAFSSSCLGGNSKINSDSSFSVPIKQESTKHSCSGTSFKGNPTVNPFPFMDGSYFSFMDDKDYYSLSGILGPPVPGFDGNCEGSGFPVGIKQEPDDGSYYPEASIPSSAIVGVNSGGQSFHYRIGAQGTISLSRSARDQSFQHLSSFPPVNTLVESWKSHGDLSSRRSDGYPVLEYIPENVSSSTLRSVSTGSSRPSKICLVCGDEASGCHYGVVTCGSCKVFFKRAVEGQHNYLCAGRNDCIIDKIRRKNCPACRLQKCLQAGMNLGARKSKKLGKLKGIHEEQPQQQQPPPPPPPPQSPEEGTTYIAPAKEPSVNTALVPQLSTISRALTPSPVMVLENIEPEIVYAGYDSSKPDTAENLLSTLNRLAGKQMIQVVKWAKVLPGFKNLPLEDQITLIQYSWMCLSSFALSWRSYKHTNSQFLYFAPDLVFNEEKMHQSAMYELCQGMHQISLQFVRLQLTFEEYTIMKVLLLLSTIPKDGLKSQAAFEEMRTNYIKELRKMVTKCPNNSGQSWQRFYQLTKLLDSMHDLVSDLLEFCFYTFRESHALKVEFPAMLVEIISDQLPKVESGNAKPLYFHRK

Orexin receptor type 2 = molecular target: T2, Orexin receptor type 2 (Homo sapiens, UniProt O43614); experiment: Displacement of (2S)-N-(2-pyrrol-1-ylphenyl)-1-[2-[1-(tritritiomethyl)benzimidazol-2-yl]sulfanylacetyl]pyrrolidine-2-carboxamide from recombinant human OX2 receptor expressed in CHO cell membranes after 3 hrs by Topcount method
T2 sequence (O43614 whole entry): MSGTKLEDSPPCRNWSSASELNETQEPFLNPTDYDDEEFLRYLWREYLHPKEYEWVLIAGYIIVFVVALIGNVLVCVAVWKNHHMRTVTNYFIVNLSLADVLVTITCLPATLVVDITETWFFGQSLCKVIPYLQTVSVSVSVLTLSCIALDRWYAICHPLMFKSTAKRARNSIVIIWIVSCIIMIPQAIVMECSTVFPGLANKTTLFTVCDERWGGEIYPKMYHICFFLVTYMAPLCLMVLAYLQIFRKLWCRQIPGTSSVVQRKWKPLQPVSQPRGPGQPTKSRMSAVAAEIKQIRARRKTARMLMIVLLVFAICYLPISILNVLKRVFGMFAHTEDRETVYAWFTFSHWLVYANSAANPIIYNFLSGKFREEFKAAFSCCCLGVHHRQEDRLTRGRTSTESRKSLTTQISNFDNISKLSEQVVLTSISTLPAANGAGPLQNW

[2] = Displacement of (2S)-N-(2-phenylphenyl)-1-[2-[1-(tritritiomethyl)benzimidazol-2-yl]sulfanylacetyl]pyrrolidine-2-carboxamide from human OX1 receptor Ile408-Val mutant expressed on CHO cell membrane measured after 3 hrs by TopCount method

With `O=C1COc2ccc(N3CCc4ccc(F)cc4CC3)cc2N1` the Ki [1] was 196 nM.

Work on `Cc1ccc(-n2nccn2)c(C(=O)N2CCC[C@@H](COc3ccc(F)cn3)[C@@H]2C)c1` (relative stereo) yielded a Ki (Orexin receptor type 2) of 0.2 nM.

With `Cc1ccc(-n2nccn2)c(C(=O)N2CCCC(COc3ccc(F)cn3)C2)c1` (stereo not drawn) the Ki [2] was 96 nM.
